Data on 21 molecules can be found in patent US20110124842A1 (priority 2003, published 2011).

The IC50 is the concentration needed to halve the response being measured. What is called koff is a measure of how fast the partners let go of each other. Low values mean a long-lived complex, high ones a short-lived complex. What is called kon is the rate constant with which the complex forms. High values mean faster complex formation, low ones slower complex formation. By Kd is commonly meant the constant that tells how readily two partners part at equilibrium.

For one assay, the system named is IgG 4E10. The assay can be described thus: Competitive ELISA (IC50): peptide competes with biotinylated 4E10-epitope peptide for IgG 4E10. Particulars: for increased binding affinity in comparison with its peptide control: 33-1 vs control 44-1, 104-2 vs control 104-1, ELISA; for higher affinity of 4E10 than to the original peptide KGND: as determined by surface plasmon resonance and ELISA. The format is binding, human. Here is the method: IC50, were determined by competitive ELISA using a constant concentration of biotinylated peptide and IgG with a variable concentration of gp41 peptides. Microwells were coated overnight at 4° C. with 50 μl PBS containing neutravidin (Pierce; 4 μg/ml). […] A mixture of a biotinylated 4E10-epitope peptide, […](biotin)-NH2 (SEQ ID NO: 88) (20 nM), IgG 4E10 (0.2 nM), and the competing peptide analog (3-fold dilution series starting at 10 μM) in 0.4% non-fat dry milk, 0.02% Tween and PBS was incubated in a separate 96-well plate at 37° C. for 2 hours. After washing the blocked plate, the mixture of 4E10, biotinylated peptide and competing peptide was added to the wells. After 20 minutes at room temperature, the Wells were washed five times, and a 1:500 dilution of goat anti-human IgG F(ab′)2 HRP conjugate (Pierce) was added. Following incubation at RT for 40 minutes, the wells were washed five times, and developed by adding 50 μl of TMB solution (Pierce) according to the manufacturer's instructions. After ˜20 minutes, wells containing TMB solution were stopped by adding 50 μl of H2SO4 (2M) and the O.D. at 450 nm was read on a microplate reader (Molecular Devices). The concentration of competitor peptide corresponding to a half-maximal signal (IC50) was determined by interpolation of the resulting binding curve. Each peptide competitor was tested in duplicate in at least two separate experiments.
IC50s were determined by competitive ELISA using a constant concentration of biotinylated peptide and IgG with a variable concentration of gp41 peptides. Microwells were coated overnight at 4° C. with 50 μl PBS containing neutravidin (Pierce; 4 μg/ml). […] Meanwhile, a mixture of a biotinylated 4E10-peptide epitope, […](biotin)-NH2 (SEQ ID NO: 88), (20 nM), IgG 4E10 (0.2 nM), and the competing peptide analogue (3-fold dilution series starting at 10 μM) in 0.4% NFDM, 0.02% Tween and PBS was incubated in a separate 96-well plate at 37° C. for 2 h. After washing the blocked plate, the mixture of 4E10, biotinylated peptide and competing peptide was added to the wells. After 20 min at room temperature, the wells were washed five times, and a 1:500 dilution of goat anti-human IgG F(ab′)2 HRP conjugate (Pierce) was added. Following incubation at RT for 40 min, the wells were washed five times, and developed by adding 50 μl of H2SO4 (2 M), and the O.D. at 450 nm was read on a microplate reader (Molecular Devices). The concentration of competitor peptide corresponding to a half-maximal signal (IC50) was determined by interpolation of the resulting binding curve. Each peptide competitor was tested in duplicate in at least two separate experiments.
(In an ELISA, binding on a coated surface is turned into a signal by an enzyme label.)

Assay [1] has as its system Fab 4E10. The assay can be described thus: Surface plasmon resonance (Biacore 2000), Fab 4E10 on CM5 chip. It is filed as binding, human. On the procedure:
The affinitiefs of the peptide analogs for 4E10 were also measured by surface plasmon resonance. Surface plasmon resonance experiments were performed using a Biacore 2000 instrument (Uppsala, Sweden). Around 2,200 response units (RU) of Fab 4E10 were coated on CM5 chips. The carboxyl groups on the chip were activated with 1-ethyl-3-(3-dimethylaminopropyl)carbodiimide hydrochloride (EDC) and N-hydroxysuccinimide (NHS). Fifty micrograms of Fab were diluted in 10 mM sodium acetate pH 4.5; a flow rate of 5 μl/min was used. Unreacted carboxyl groups were blocked with 1M ethanolamine at pH 8.5. The control was treated in the same fashion without any antibody present. Different amounts of free peptides were then passed over the surfaces at 30 or 50 μl/min for 2 min. Regeneration was done in HPS-EP buffer, 0.25 NaCl (Biacore) in 10 minutes. The amount of salt was increased compared to the commercial buffer to reduce the non-specific binding. For data evaluation, the BIAevaluation software was used. RI and Rmax were controlled, double referencing were done (0 concentration and start point). Analyses were performed to achieve the best curve fitting and small chi^2 (<1).
Surface plasmon resonance experiments were performed using a Biacore 2000 instrument (Uppsala, Sweden).
Chip preparation: around 2,200 response units (RU) of Fab 4E10 were coated on CM5 chips. The carboxyl groups on the chip were activated with 1-ethyl-3-(3-dimethylaminopropyl) carbodiimide hydrochloride (EDC) and N-hydroxysuccinimide (NHS). Fifty micrograms of Fab was diluted in 10 mM sodium acetate pH 4.5; a flow rate of 5 μl/min was used. Unreacted carboxyl groups were blocked with 1M ethanolamine at pH 8.5. The control was treated in the same fashion without any antibody present.
Experiment: different amounts of free peptides were then passed over the surfaces at 30 or 50 μl/min for 2 min. Regeneration was done in HPS-EP buffer, 0.25 NaCl (Biacore) in 10 min. The amount of salt was increased compared to the commercial buffer to reduce the non-specific binding.
Data evaluation: the BIAevaluation software was used. RI and Rmax were controlled, double referencing were done (0 concentration and start point). Analyses were performed to achieve the best curve fitting and small chi^2 (<1).
Background: In SPR one partner is held on a chip, and binding of the other changes the refractive index at the surface.

Assay [2] addresses recombinant IgG1(kappa) 4E10. In words: competitive ELISA: peptide against biotinylated …(biotin)-NH2 for IgG 4E10.
The target in assay [3] is recombinant IgG1(kappa) 4E10. The assay can be described thus: competitive ELISA.
Sequence of recombinant IgG1(kappa) 4E10 (heavy, as listed by the source): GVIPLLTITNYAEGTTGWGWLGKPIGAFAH
Assay [4] concerns the target Fab 4E10. In words: SPR (Biacore 2000), Fab 4E10 on CM5 chip, peptide in flow.
The mark [5] stands for this setting: Table 5, unconstrained peptide analogs, 4E10 binding, read-out: IC50.
Setting [6] is: Table 6, constrained analogs, 4E10 binding, read-out: IC50.
Where [7] appears, read: Table 7, 4E10 peptide epitopes, read-out: IC50.
[8] abbreviates: read-out: IC50 (4E10 binding, competitive ELISA).
[9] abbreviates: Table 7, 4E10 peptide epitopes, read-out: Kd.
The mark [10] stands for this setting: Table 6, constrained analogs, 4E10 binding, read-out: Kd.

Read-outs that look alike come from different tables or passages of the source. Bridges are numbered along the chain shown (N, C = ends). Where no end group is shown, it is not given here. [ ]: non-standard residue; d: D form. code O = not defined here; Orn = NCCC[C@H](N)C(=O)O; Aib = CC(C)(N)C(=O)O Bounds are passed on as bounds.

Sequence of Fab 4E10 (heavy, as listed by the source): as above

Consider KGWNWFDITNWGK [KGND], for which the IC50 is more than 10000 nM in the assay on IgG 4E10 (setting [5]), more than 10000 nM with IgG 4E10 (setting [6]), more than 10000 nM in the assay on IgG 4E10 (setting [7]) and 10000 nM in the assay on IgG 4E10 (setting [8]).

Turning to “KKBNWFDITNWLWKBKBK-NH2 (KKXNWFDITNWLWKXKXK-NH2; not fully specified (residues 3, 15, 17); printed as KKBNWFDITNWLWKBKBK-NH2) [Peptide 102-2]”, the IC50 in the assay on IgG 4E10 (setting [6]) is 10 nM.

Regarding “NWFCITOWLWKKKK-NH2 (NWFCIT[code O]WLWKKKK-NH2; not fully specified; printed as NWFCITOWLWKKKK-NH2; reading uncertain) [Peptide 104-1]”, the IC50 with IgG 4E10 (setting [5]) and in the assay with IgG 4E10 (setting [7]) was 40 nM each time.

For the molecule NWFDITN-Aib-LWRR-NH2 [Peptide 33-1], in the assay on IgG 4E10, the “increased binding affinity in comparison with its peptide control” value worked out at 3 fold and the “higher affinity of 4E10 than to the original peptide KGND” value is reported as “approximately 10^3 fold”. The IC50 with IgG 4E10 (setting [7]) lay in the range of 100 to 400 nM. In the assay with Fab 4E10 [1] (Table 7), this molecule returned a koff of 0.13 s⁻¹ and a kon of 431000 M⁻¹ s⁻¹. Besides, at Fab 4E10 [1] (setting [9]), the Kd came out at 302 nM.

In the case of NWFDITNWLWKBKBK-NH2 [Peptide 102-1], the IC50 in the assay on IgG 4E10 (setting [8]) was found to be 10 nM.

Take “NWFDITNWLWKKKK [Peptide 84-1, NWFDITNWLWKKKK-NH2]”: the IC50 in the assay on IgG 4E10 (setting [8]) was 40 nM. Also, the Kd on Fab 4E10 [1] (Table 5, unconstrained peptide analogs, 4E10 binding, read-out: Kd) came out at 100 nM.

“NWFDITNWLWRR [Peptide 44-1, NWFDITNWLWRR-NH2]”: the IC50 in the assay on IgG 4E10 (setting [7]) is 600 nM.

With “NWFc(CITO)WLWKKKK-NH2 (NWFCIT[code O]WLWKKKK-NH2; bridge 4-7; reading uncertain; also: printed as NWFc(CITO)WLWKKKK-NH2) [Peptide 104-2]”, in the assay with IgG 4E10, the “increased binding affinity in comparison with its peptide control” value is given as 4 fold. Further, the IC50 in the assay on IgG 4E10 (setting [6]), with IgG 4E10 (setting [7]) and in the assay with IgG 4E10 (setting [8]) was 10 nM throughout. The “higher affinity of 4E10 than to the original peptide KGND” value in the assay with IgG 4E10 was “approximately 10^3 fold”. The Kd at Fab 4E10 [1] (setting [10]), at Fab 4E10 [1] (setting [9]) and at Fab 4E10 [1] (read-out: Kd (Biacore)) was 17 nM throughout. For the same molecule, the “higher affinity of 4E10 than to peptide 33-1” value with Fab 4E10 [1] (Table 7) is “about 17 fold”. In the assay with Fab 4E10 [1] (Table 7), this molecule gave a koff of 0.0034 s⁻¹. Besides, the kon in the assay on Fab 4E10 [1] (Table 7) worked out at 202000 M⁻¹ s⁻¹.

Consider “SLWNWFDITNWLWKKKK [Peptide 84-4, SLWNWFDITNWLWKKKK-NH2]”, for which the IC50 with IgG 4E10 (setting [5]) worked out at 120 nM.

With “SLWNWFDITNWLWYIKKKK [SLWNWFDITNWLWYIKKKK-NH2]”, the IC50 in the assay with IgG 4E10 (setting [8]) turned out to be 10 nM.

Regarding “WNWFDITNWLWKKKK [Peptide 84-2, WNWFDITNWLWKKKK-NH2]”, in the assay with IgG 4E10 (setting [5]), the IC50 came to 120 nM.

Consider “c(CWFO)ITNWLWKKKK-NH2 (CWF[code O]ITNWLWKKKK-NH2; bridge 1-4; reading uncertain; also: printed as c(CWFO)ITNWLWKKKK-NH2) [Peptide 74-2]”, for which the IC50 in the assay on IgG 4E10 (setting [6]) stood at 230 nM. Besides, the Kd at Fab 4E10 [1] (setting [10]) worked out at 276 nM.

B1: peptide 102-2, KKB…BKBK-NH2 (peptide)
peptide: KK[Aib]NWFDITNWLWK[Aib]K[Aib]K-NH2
modifications: N-terminus assumed
SMILES: CC[C@H](C)[C@H](NC(=O)[C@H](CC(=O)O)NC(=O)[C@H](Cc1ccccc1)NC(=O)[C@H](Cc1c[nH]c2ccccc12)NC(=O)[C@H](CC(N)=O)NC(=O)C(C)(C)NC(=O)[C@H](CCCCN)NC(=O)[C@@H](N)CCCCN)C(=O)N[C@H](C(=O)N[C@@H](CC(N)=O)C(=O)N[C@@H](Cc1c[nH]c2ccccc12)C(=O)N[C@@H](CC(C)C)C(=O)N[C@@H](Cc1c[nH]c2ccccc12)C(=O)N[C@@H](CCCCN)C(=O)NC(C)(C)C(=O)N[C@@H](CCCCN)C(=O)NC(C)(C)C(=O)N[C@@H](CCCCN)C(N)=O)[C@@H](C)O
With B1, the IC50 in assay [2] came out at 10 nM.

B2: peptide 104-2, NWFc(CITO)WLWKKKK-NH2 (peptide)
peptide: NWFCIT[Orn]WLWKKKK-NH2
modifications: bridge 4-7; not fully specified (bridges); printed as peptide 104-2, NWFc(CITO)WLWKKKK-NH2
As for B2, the fold increase of affinity over its control peptide 104-1 in assay [3] is 4 fold. For the same molecule, in the assay with Fab 4E10 [4], the Kd amounted to 17 nM, the koff was 0.0034 s⁻¹ and the on-rate (kon) worked out at 202000 M⁻¹ s⁻¹. In addition, the IC50 in assay [2] came out at 10 nM.

Consider WNWFDITNWLWKKKK-NH2 [peptide 84-2, …-NH2], for which, in assay [2], the IC50 worked out at 120 nM.

The molecule CWFXITNWLWKKKK (cyclic thioether between Cys 1 and ornithine (O) 4; C-terminal amide) [peptide 74-2, c(CWFO)…-NH2] yielded a Kd with Fab 4E10 [4] of 276 nM. Further, the concentration for half-maximal inhibition (IC50) in assay [2] was determined as 230 nM.

On to NWFDITNWLWYIKXKXKK (B = Aib at positions 14 and 16; C-terminal amide) [peptide 119, …BKBKK-NH2], for which the IC50 in assay [2] turned out to be 10 nM.

With NWFCIT[Orn]WLWKKKK-NH2 (not fully specified; printed as NWFCITOWLWKKKK-NH2) [peptide 104-1, NWFCITOWLWKKKK-NH2 (acyclic control)], in assay [2], the IC50 is 40 nM.

NWFDITNWLWRR-NH2 [peptide 44-1, …-NH2]: in assay [2], the IC50 stood at 600 nM.

As to KGWNWFDITNWGK (not fully specified) [peptide KGND (…)], in assay [2], the IC50 was more than 10000 nM.

B3: peptide 102-1, …BKBK-NH2 (peptide)
peptide: NWFDITNWLWK[Aib]K[Aib]K-NH2
modifications: N-terminus assumed
SMILES: CC[C@H](C)[C@H](NC(=O)[C@H](CC(=O)O)NC(=O)[C@H](Cc1ccccc1)NC(=O)[C@H](Cc1c[nH]c2ccccc12)NC(=O)[C@@H](N)CC(N)=O)C(=O)N[C@H](C(=O)N[C@@H](CC(N)=O)C(=O)N[C@@H](Cc1c[nH]c2ccccc12)C(=O)N[C@@H](CC(C)C)C(=O)N[C@@H](Cc1c[nH]c2ccccc12)C(=O)N[C@@H](CCCCN)C(=O)NC(C)(C)C(=O)N[C@@H](CCCCN)C(=O)NC(C)(C)C(=O)N[C@@H](CCCCN)C(N)=O)[C@@H](C)O
For B3, the IC50 in assay [2] came to 10 nM.
